# Measurements taken from patent publication US20240058387A1, “CULTURE MEDIUM COMPOSITION FOR AMPLIFYING AND MAINTAINING SELF-RENEWAL CAPACITY AND DIFFERENTIATION POTENTIAL OF HSCS AND APPLICATION THEREOF” (EDIGENE (GUANGZHOU) INC., priority 2020, published 2024).
# Test system: umbilical cord blood-derived CD34+ cells
# Experiment: In vitro colony-forming unit (CFU) assay
# Assay type: cell-based, human
# Conditions: FIG. 6, clones counted 14 days after seeding
# Procedure: In this example, the colony-forming unit (CFU) was used to detect the in vitro function of cord blood-derived hematopoietic stem cells induced by a small molecule inhibitor for qualitative and quantitative detection to verify their in vitro differentiation potential.
# First, 100 mL of medium MethoCult™ H4034 Optimum (Stem Cell, Cat. No.: 04034) were aliquoted, then thawing at 2-8° C. overnight; shaking vigorously for 1-2 minutes and letting it stand for 10 minutes until the bubbles rised to the liquid level. After tightly fitting the 50 mL syringe needle to the 5 mL disposable syringe, the medium is aspirated to 1 mL, pushing out the syringe completely to exhaust the gas in the syringe, and re-absorbing 3 mL into each 15 mL centrifuge tube (Corning, Cat. No. 430791); storing at 2-8° C. for 1 month, and at −20° C. for long-term storage.
# 3 mL of medium Meth® Cult′ H4034 Optimum was prepared and thawed overnight at room temperature (15-25° C.) or 2-8° C. […]
# Colonies were observed on the 7th and 14th days of culture, and colonies were counted with a STEMgrid™-6 counting grid (stem cell, Cat. number: 27000) after 14 days of culture. […]
smiles,measurement,setting,value
COc1cc2ncc(-c3ccccc3)nc2cc1OC [AG1296],number of GEMM clones (CFU-GEMM),"1 μM, 8 days treatment",significantly better than the other groups
same,total number of clones,"different concentrations of AG1296, 8 days treatment",little difference between the groups
